Columns and labels:
HK82-SOS = assay: REAP mutagenesis assay, HK82-SOS cells; format: cell-based, E. coli; conditions: (b) HK82-SOS
Text: (§1) All E. coli strains used in this work contain the F′ episome, which enables infection by M13 phage. GW5100 strain was used for large scale preparation of M13 phage DNA, SCS 110 (JM110, end Al) was used for amplification of progeny phage post-electroporation, and NR9050 was the strain of choice for double agar plating with X-GAL for blue-clear detection of plaques. The E. coli strains used to replicate lesion-containing phage were HK81 (as AB1157, but nalA) and HK82 (as AB1157, but nalA alkB22; AlkB-deficient).
(§2) Lesion-containing genomes were mixed with the competitor genome (80:20 molar ratio) and electroporated in triplicate into 100 μl competent cells using a 2 mm-gap cuvette and a BTX electroporator set to 2.5 kV and 125 a Typical pulse lengths were 4.9 msec. The cells were immediately transferred to 10 ml LB and an aliquot was immediately plated using the agar overlay method to verify that a minimum of 10^5 independent initial electroporation events occurred in 10 ml of culture. Incubation for 6 h at 37° C. with aeration generated the progeny phage, which were then reamplified in SCS 110 cells (10 μl overnight culture and 100 μl of the 6 h supernatant in 10 ml LB) to dilute out the residual genomic DNA used for electroporation. Single-stranded M13 progeny phage DNA was isolated from 1.4 ml of supernatant using a Q1Aprep Spin M13 Kit with final DNA suspension in 100 μl elution buffer. CRAB forward and reverse primers were used to amplify the region of interest from 15 μl per Q1Aprep elution sample in a total volume of 25 μl containing 50 pmol of each primer, 1×Pfu Turbo buffer, 1.25 U Pfu Turbo DNA polymerase and […] of each dNTP. The PCR program used 30 cycles of 67° C. (1 min) annealing and 72° C. (1 min) extensions. After purification using QIAQUICK PCR purification columns, 4 μl of the PCR product were treated with BbsI (1.5 U) and SAP (0.3 U) in a total volume of 6 μl by incubating at 37° C. for 4 h. After phosphatase inactivation, (80° C. for 5 min), the 5′ ends were then radiolabeled using [γ-^32P]-ATP (1.66 pmol, 10 μCi/μl, 6000 Ci/mmol), cold ATP (16 pmol) and 5 U of OPTIKINASE at 37° C. for 30 min. Following the kinase inactivation at 65° C. for 20 min, the labeled product was then trimmed by HaeIII (10 U in a final volume of 10 μl) at 37° C. for 2 h, and diluted 1:1 in formamide loading dye. PAGE separation on a 20% denaturing gel, run for about 3.5 h at 550 V, until the xylene cyanol dye migrated 10.5 cm, yielded two bands for each sample: an 18-mer originating from the lesion-containing genome and a 21-mer originating from the competitor genome. The gels were visualized on a phosphorimager (Typhoon 7000, GE Healthcare Life Sciences); the band intensities were quantified using IMAGEJ software (National Institutes of Health). Lesion bypass was calculated as the percentage ratio of the intensity of the 18-mer band (lesion signal) to the intensity of the 21-mer band (competitor signal).
The REAP assay methodology is identical to the CRAB assay except for the PCR primers, which amplified only the progeny DNA originating from the lesion-carrying genomes. Following electrophoresis, the 18-mer bands were excised from the gel, crushed and extracted with 200 μl water. After desalting with SEPHADEX G-50 Fine resin spin columns, the samples were lyophilized to dryness, resuspended in 5 μl containing 1 μg P1 Nuclease in 30 mM sodium acetate (pH 5.3) and 10 mM zinc chloride, and incubated at 50° C. for 1 h. One μl of each sample was then spotted onto PEI-TLC plates and separated using 200 ml of a saturated solution of (NH4)2HPO4 adjusted to pH 5.8. After 24 h of development, the TLC plates were air-dried and quantified using phosphorimagery. […]

HK82SOS = assay: CRAB lesion bypass assay, HK82SOS cells; format: cell-based, E. coli; conditions: percentage relative to unmodified control genome
Text: as §1
as §2, with “After purification using QIAQUICK PCR purification columns, 4 μl of the PCR product were treated with BbsI (1.5 U) and SAP (0.3 U) in a total volume of 6 μl by incubating at 37° C. for 4 h. After phosphatase inactivation, (80° C. for 5 min), the 5′ ends were then radiolabeled using [γ-^32P]-ATP (1.66 pmol, 10 μCi/μl, 6000 Ci/mmol), cold ATP (16 pmol) and 5 U of OPTIKINASE at 37° C. for 30 min. Following the kinase inactivation at 65° C. for 20 min, the labeled product was then trimmed by HaeIII (10 U in a final volume of 10 μl) at 37° C. for 2 h, and diluted 1:1 in formamide loading dye. PAGE separation on a 20% denaturing gel, run for about 3.5 h at 550 V, until the xylene cyanol dye migrated 10.5 cm, yielded two bands for each sample: an 18-mer originating from the lesion-containing genome and a 21-mer originating from the competitor genome.” left out, “signal). […]” for “signal).”

[1] = test system: HK81 (AlkB+) E. coli cells; format: cell-based; conditions: HK81; percentage relative to unmodified control genome
Procedure: (A) A 16mer oligonucleotide containing KP1212 (SEQ ID NO: 1) (or controls) at a specific site was chemically synthesized and ligated into the genome of an M13 bacteriophage. (B) The KP1212-containing M13 genomes were replicated within E. coli cells. Progeny were analyzed to characterize the amount and the type of nucleic acid base placed opposite the lesion during replication. The relative reduction in lesion vs. non-lesion competitor progeny formation was used as an estimate of the extent to which KP1212 and m3C inhibited DNA replication. (C) The KP1212-containing M13 genomes were used as templates for in vitro polymerase extension assays, carried out at 72° C., using the high-fidelity DNA polymerase PfuTurbo. (D) Bypass efficiency (CRAB assay) of KP1212, m3C, C in HK81 (AlkB^+) and HK82 (AlkB^−) E. coli cells. m3C and undamaged C were used as controls. Genomes were made and normalized to one another before being combined with a competitor genome. Each mixture was transformed into the corresponding cell strain in triplicate, and bypass efficiency was calculated by using the undamaged C genome as 100% bypass, with error bars representing one standard deviation. (E) Mutagenesis (REAP assay) of KP1212, m3C, and C in HK82 (AlkB^−) E. coli cells. m3C, undamaged C, and an approximately equimolar mixture of genomes carrying unmodified G/A/T/C bases at the site of inquiry (denoted as GATC) were used as controls. Genomes containing the lesions of interest were transfected into E. coli in triplicate.
as §1

[2] = test system: HK82 (AlkB−) E. coli cells; format: cell-based; conditions: for Mutagenicity, Average % A / Mutagenicity, Average % C / Mutagenicity, Average % G / Mutagenicity, Average % T: (a) HK82; for base pairing / mutagenicity (in words): FIGS. 18C, 18E, m3C in repair deficient cells
[3] = in vitro and in vivo replication of a single-stranded vector containing a single KP1212

Row | Compound | Mutagenicity, Average % A (HK82-SOS) | Mutagenicity, Average % C (HK82-SOS) | Mutagenicity, Average % G (HK82-SOS) | Mutagenicity, Average % T (HK82-SOS) | Polymerase bypass efficiency, Avg. (HK82SOS) | Polymerase bypass efficiency, Avg. [1] | Mutagenicity, Average % A [2] | Mutagenicity, Average % C [2] | Mutagenicity, Average % G [2] | Mutagenicity, Average % T [2] | base pairing / mutagenicity (in words) [2] | in vivo mutation frequency ([2]; frequency of pairing with any non-G base (A)) | paired with A [2, 3] | paired with G [2, 3] | pairing with A in vivo ([2]; in vivo, E. coli (FIG. 18E)) | pairing with G in vivo ([2]; in vivo, E. coli (FIG. 18E)) | mutation frequency ([2]; observed in vitro and in vivo in this study)
1 | NC1=NC(=O)N([C@H]2C[C@H](O)[C@@H](CO)O2)CN1 [KP1212, 5-aza-5,6-dihydro-2′-deoxycytidine] | 0.1% | 89.4% | 0.2% | 10.3% | 124% | 128% | 0.0% | 89.1% | 0.4% | 10.5% | mutagenic both in vitro and in vivo | approximately 10% | 10% | 90% | 10% | 90% | 10%
2 | Nc1ccn([C@H]2C[C@H](O)[C@@H](CO)O2)c(=O)n1 [dC, deoxycytidine] | 0.1% | – | 0.0% | 0.0% | 100% | 100% | 0.0% | 100.0% | 0.0% | 0.0% | only pairs with G | – | – | – | – | – | –
